Test results from patent US10227295B2, “Selective histone deactylase 6 inhibitors” (H. LEE MOFFITT CANCER CENTER AND RESEARCH INSTITUTE, INC., priority 2013, dated 2019).

Key:
[1] = molecular target: human, recombinant full-length HDAC6 (Homo sapiens (Human), UniProt Q9UBN7); test: HDAC inhibition assay (Reaction Biology), HDAC6; format: biochemical
[2] = system: B16 murine melanoma cells; test: B16 melanoma cell growth inhibition MTS assay; format: cell-based; conditions: for GI50: Mus musculus, B16 murine melanoma cells; for GI50 / growth inhibition of B16 melanoma cells (in words): 48 h, MTS
Protocol: B16 murine melanoma cells were plated at 5×10^3/well in 96 well flat bottom plates. The following day, media was changed to that containing various concentrations of HDACi or matched DMSO vehicle concentrations diluted in complete medium done in triplicate. Cells were incubated for 48 hours at 37° C. and 5% CO2. […] Briefly, 20 μL of reagent were added per well and incubated at 37° C. for 3 hours. […] All values were then normalized and expressed as a percentage of medium control (100%).

[3] = system: melanoma antigens gp100, MART1, TYRP1 and TYRP2 in human melanoma cell lines; test: Tumor antigen expression by qRT-PCR; format: cell-based; conditions: 48 hours
Protocol: (D) Expression of tumor antigens was measured in human WM164 non-target and HDAC6KD cells. (E) Expression of tumor antigens mart-1 and gp-100 was measured by western blot.
In addition to direct cytotoxicity, pan-HDACi have immunologic effects on melanoma including modulation of MHC, co-stimulatory molecules, and cytokine production. In both human and murine melanoma cell lines, genetic (FIG. 43A) and pharmacologic (FIG. 43B) disruption of HDAC6 led to increased surface expression of MHC I by flow cytometry.

B16 melanoma = test: In vivo B16 melanoma tumor growth in C57BL/6 mice; conditions: 25 mg/kg, intraperitoneal, three times weekly, B16 subcutaneous
[4] = system: acetyl-α-tubulin and acetyl-H3 in B16 melanoma cells; test: Tubulin and histone acetylation Western blot assay; format: cell-based, murine; conditions: low nanomolar treatment, 24 h
Protocol: […]. B16 melanoma cells were plated at 10^5 cells/well in 12 well plates and allowed to adhere overnight. A 50 mM stock of compound was then added by serial dilutions in complete medium to the indicated concentrations. Cells were incubated for 24 h under humidified conditions (37° C., 5% CO2). Wells were then washed with cold PBS, and cells were lysed in a buffer containing 10 mM Tris-HCl pH 8.0, 10% SDS, […], 100 mM DTT, and 1× protease inhibitor (Roche). Cells were lysed for 30 min on ice and then sonicated for 8 min (8 cycles of 30 s on/30 s rest). Cells were then boiled for 10 min with 6× gel loading buffer and resolved on 4-15% gradient gels and subsequently transferred onto nitrocellulose membranes. Membranes were blocked with 5% milk in PBS-T and detection of specific antigens using antibodies against acetyl-H3 and H3 (Cell Signaling), and acetyl-α-tubulin and α-tubulin (Sigma). Bands were detected by scanning blots with LI-COR Odyssey imaging system using both 700 and 800 channels.

[5] = system: acetyl-tubulin and acetyl-histone3 in human melanoma cell lines; test: Western blot of HDAC substrate acetylation in human melanoma cells; format: cell-based; conditions: 24 hrs
Protocol: Error bars represent standard deviation from triplicates. This figure is representative of three independent experiments. (F,G,H) Cell cycle analysis of melanoma WM164, WM983A and WM793 human melanoma cell lines stained with propidium iodide. Data is representative of three experiments with similar results.
To confirm the selectivity of isotype specific HDACi, Western blot analysis was performed on the acetylation status of known HDAC substrates including histone H3 and H4, which are known Class I HDAC targets, and α-tubulin, a target for HDAC6. The doses required to impart the anti-proliferative effect coincided with that needed to increase acetylation of the respective HDAC substrates (FIG. 41F-41H). […] Conversely, HDAC6 selective inhibitors (HDAC6i) increase α-tubulin acetylation but not histone acetylation (FIG. 41F).

murine melanoma B16 = test: Cell viability CellTiter 96 Aqueous ONE, B16; format: cell-based; conditions: B16, 24 hrs, compared to DMSO
Protocol: (§1) Human cutaneous T-cell lymphoma (CTCL) HuT-78 (A), murine mantle cell lymphoma (MCL) (B), and murine melanoma B16 (C) and SM1 (D) cells were incubated with JB7-19, JB7-22, JB720 at different concentrations for 24 hrs. Cell viability was measured using CellTiter 96 Aqueous ONE solution (Promega, Madison, Wis.) and compared to DMSO treated control samples. Error bars represent standard deviation from triplicates.

[6] = system: Human cutaneous T-cell lymphoma (CTCL) HuT-78; test: Cell viability CellTiter 96 Aqueous ONE, HuT-78; format: cell-based; conditions: HuT-78, 24 hrs, compared to DMSO
Protocol: as §1

[7] = system: IL-10 production in murine peritoneal elicited primary macrophages (PEM); test: IL-10 production ELISA, PEM; format: cell-based; conditions: 24 hrs
Protocol: (§2) Murine peritoneal elicited primary macrophages (PEM)(A) and murine RAW264.7 (B) cells were incubated with JB7-19, JB7-22, JB720 at the concentration indicated on each chart. After 24 hrs, the production of IL-10 was measured by ELISA.

[8] = system: murine mantle cell lymphoma (MCL); test: Cell viability CellTiter 96 Aqueous ONE, MCL; format: cell-based; conditions: 24 hrs, compared to DMSO
Protocol: as §1

murine melanoma SM1 = test: Cell viability CellTiter 96 Aqueous ONE, SM1; format: cell-based; conditions: SM1, 24 hrs, compared to DMSO
Protocol: as §1

[9] = system: IL-10 production in murine RAW264.7 cells; test: IL-10 production ELISA, RAW264.7; format: cell-based; conditions: RAW264.7, 24 hrs
Protocol: as §2

[10] = system: NRAS and BRAF mutant human melanoma cell lines; test: Human melanoma cell proliferation MTS assay; format: cell-based; conditions: 24 h, panel of human melanoma cell lines
Protocol: Cell proliferation was evaluated using various pan- and isotype selective HDACi in a broad panel of human melanoma cell lines. Briefly, cells were plated at 10×10^3/well in a 96 well flat bottom plate. The following day, media was changed to that containing different concentrations of HDACi or matched DMSO vehicle concentrations diluted in complete medium done in triplicate, all with a final concentration of less than 0.1% DMSO. Cells were incubated for 24 hours at 37° C. and 5% CO2. […] All values were then normalized and expressed as a percentage of medium control growth.

[11] = system: antigen-specific T-cell responses; test: In vivo antigen-specific T-cell response to vaccination; design: species or system mice; conditions: in vivo treatment
Text: Tubastatin A-treated macrophages are better activators of […] and restore the responsiveness of anergicT-cells in vitro. […] Mechanistically, Tubastatin-A disrupt […] pathway and tip the balance towards immunogenic rather than tolerogenic macrophages.

STAT3 in APCs = test: STAT3 phosphorylation and recruitment to IL-10 gene promotor in APCs; format: cell-based
Text: FIG. 26 is a flow chart depicting the experimental design of the in vitro antigen-presenting studies.
Human MCL cells display an enhanced expression of HDAC6. Disruption of HDAC6 in malignant B-cells inhibits their proliferation and is associated with induction of apoptosis. Pharmacologic or genetic disruption of HDAC6 in MCL cells augment their antigen-presenting capabilities leading to better T-cell activation and restoration of function of anergic Tcells in vitro. […] Disclosed herein is the rationale to use HDAC6 specific inhibitor(s) alone or in combination with STAT3 inhibitors in MCL.

Sequence of human, recombinant full-length HDAC6 (Q9UBN7 whole entry): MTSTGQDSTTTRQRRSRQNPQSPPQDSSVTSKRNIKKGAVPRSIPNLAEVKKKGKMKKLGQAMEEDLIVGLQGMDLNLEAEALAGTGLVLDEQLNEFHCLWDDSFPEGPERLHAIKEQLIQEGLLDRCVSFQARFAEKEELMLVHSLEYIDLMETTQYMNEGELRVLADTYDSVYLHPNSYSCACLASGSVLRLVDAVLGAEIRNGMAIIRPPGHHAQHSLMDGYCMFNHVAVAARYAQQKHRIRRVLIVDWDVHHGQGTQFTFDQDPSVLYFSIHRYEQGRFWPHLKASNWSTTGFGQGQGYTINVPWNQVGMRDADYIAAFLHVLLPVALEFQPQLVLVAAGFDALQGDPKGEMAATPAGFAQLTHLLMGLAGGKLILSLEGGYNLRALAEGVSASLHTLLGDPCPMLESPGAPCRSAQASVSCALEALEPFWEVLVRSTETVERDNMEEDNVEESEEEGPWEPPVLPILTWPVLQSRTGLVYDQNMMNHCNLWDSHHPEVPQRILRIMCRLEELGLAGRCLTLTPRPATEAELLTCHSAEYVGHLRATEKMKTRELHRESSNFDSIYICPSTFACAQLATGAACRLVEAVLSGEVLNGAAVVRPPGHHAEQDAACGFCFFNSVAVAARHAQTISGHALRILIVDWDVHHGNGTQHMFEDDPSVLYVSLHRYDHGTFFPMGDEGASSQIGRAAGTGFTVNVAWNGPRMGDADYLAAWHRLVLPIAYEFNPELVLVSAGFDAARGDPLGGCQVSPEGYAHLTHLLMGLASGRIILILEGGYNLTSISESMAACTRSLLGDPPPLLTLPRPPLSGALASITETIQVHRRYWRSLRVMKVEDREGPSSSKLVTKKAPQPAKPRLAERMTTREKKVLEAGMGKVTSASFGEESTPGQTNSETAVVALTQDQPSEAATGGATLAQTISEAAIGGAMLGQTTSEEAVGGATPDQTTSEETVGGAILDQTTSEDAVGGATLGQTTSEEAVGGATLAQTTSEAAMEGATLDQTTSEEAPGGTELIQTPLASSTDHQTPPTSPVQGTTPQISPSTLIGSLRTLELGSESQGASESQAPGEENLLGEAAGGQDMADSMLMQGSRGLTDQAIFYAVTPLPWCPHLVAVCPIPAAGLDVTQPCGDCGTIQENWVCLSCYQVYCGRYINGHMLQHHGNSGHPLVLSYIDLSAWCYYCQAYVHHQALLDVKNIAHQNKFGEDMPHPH

In the case of `COc1ccccc1NC(=O)NCc1ccc(C(N)=O)cc1` [Compound 1], the “Fold Selective (HDAC1/HDAC6)” value ([1]; Table 1A) is reported as 2.
In the case of `COc1ccccc1NC(=O)N(CCCN(C)C)Cc1ccc(C(=O)NO)cc1` [Compound 5a, 4-((1-(3-(dimethylamino)propyl)-3-(2-methoxyphenyl)ureido)methyl)-N-hydroxybenzamide], the GI50 [2] is reported as 75.3 ± 1.23 µM.
With `COc1ccccc1NC(=O)N(CCCO)Cc1ccc(C(=O)NO)cc1` [Compound 5b] the “growth inhibition of B16 melanoma cells (in words)” value (from here on “growth inhibition”) [2] was “performed very poorly” and the GI50 [2] was > 100 µM.
`COc1ccccc1NC(=O)N(CCc1c[nH]c2ccccc12)Cc1ccc(C(=O)NO)cc1` [Compound 5c, 4-((1-(2-(1H-indol-3-yl)ethyl)-3-(2-methoxyphenyl)ureido)methyl)-N-hydroxybenzamide] gave a GI50 [2] of 30.4 ± 1.32 µM.
In the case of `COc1ccccc1NC(=O)N(CCc1ccc(O)cc1)Cc1ccc(C(=O)NO)cc1` [Compound 5d, N-hydroxy-4-((1-(4-hydroxyphenethyl)-3-(2-methoxyphenyl)ureido)methyl)-benzamide], the GI50 [2] is reported as 18.4 ± 1.23 µM.
`COCCCN(Cc1ccc(C(=O)NO)cc1)C(=O)Nc1ccccc1` [Compound 5e, N-hydroxy-4-((1-(3-methoxypropyl)-3-phenylureido)methyl)benzamide] was tested, and the GI50 [2] was 22.2 ± 1.41 µM.
In the case of `CCCCN(Cc1ccc(C(=O)NO)cc1)C(=O)Nc1ccccc1` [Compound 5g, 4-((1-butyl-3-phenylureido)methyl)-N-hydroxybenzamide], the “melanoma antigen expression at the mRNA level” value [3] is reported as “upregulation of melanoma antigens gp100, MART1, TYRP1 and TYRP2”, the tumor growth (B16 melanoma) is reported as “delayed tumor growth” and the “less potent than LBH589 in inducing murine B16 melanoma cell death” value [2] is reported as “approximately 100 fold”. The “growth inhibition” value [2] was “capable of inhibiting the growth”, the “acetyl α-tubulin levels” value [4] was “dose-dependant increase” and the “histone H3 acetylation” value ([4]; increase only at 1 and 10 μM) was “without a concamanent elevation”. For the same compound, the “acetylation of α-tubulin and histone” value [5] was “increase acetyl-tubulin without modifying the acetylation status of Histone 3”.
`O=C(NO)c1ccc(CN(CCc2ccccc2)C(=O)Nc2ccccc2)cc1` [Compound 5h, N-hydroxy-4-((1-phenethyl-3-phenylureido)methyl)benzamide] was tested, and the “growth inhibition” value [2] was “capable of inhibiting the growth” and the GI50 [2] was 15.4 ± 1.2 µM.
With `CCCCN(C(=O)NCc1ccc(C(=O)NO)cc1)c1ccccc1` [Compound 8a, 4-((3-butyl-3-phenylureido)methyl)-N-hydroxybenzamide] the GI50 [2] was 65.8 ± 1.19 µM.
For `COCCCN(C(=O)NCc1ccc(C(=O)NO)cc1)c1ccccc1` [Compound 8b, N-hydroxy-4-((3-(3-methoxypropyl)-3-phenylureido)methyl)benzamide], the GI50 [2] was > 100 µM.
For `CCN(C(=O)NCc1ccc(C(=O)NO)cc1)c1ccccc1` [Compound 8c, 4-((3-ethyl-3-phenylureido)methyl)-N-hydroxybenzamide], the GI50 [2] was > 100 µM.
For `COc1ccccc1N1C(=O)N(Cc2ccc(C(=O)NO)cc2)C(C)(C)C1=O` [Compound 10a], the “Fold Selective (HDAC1/HDAC6)” value ([1]; Table 2, cyclic urea compounds) was 386.
`CC(C)[C@@H]1C(=O)N(c2ccccc2)C(=O)N1Cc1ccc(C(=O)NO)cc1` [Compound 10b] was tested, and the “Fold Selective (HDAC1/HDAC6)” value ([1]; Table 2, cyclic urea compounds) was 531.
`O=C(NO)c1ccc(CN2C(=O)N[C@@H](Cc3ccccc3)C2=O)cc1` [Compound 11a] was tested, and the “Fold Selective (HDAC1/HDAC6)” value ([1]; Table 2, cyclic urea compounds) was 295.
With `CCCCN(Cc1ccc(C(=O)NO)cc1)C(=O)Nc1ncccn1` [JB6-22, 4-((1-butyl-3-(pyrimidin-2-yl)ureido)methyl)-N-hydroxybenzamide] the “cell proliferation / viability” value (murine melanoma B16) was “decrease cell proliferation”, the “cell proliferation / viability” value [6] was “decrease cell proliferation” and the IL-10 production [7] was “inhibit IL-10 production”. For the same compound, the “cell proliferation / viability” value [8] was “decrease cell proliferation”, the “cell proliferation / viability” value (murine melanoma SM1) was “decrease cell proliferation” and the IL-10 production [9] was “inhibit IL-10 production”. The “acetylation of α-tubulin and histone” value [5] was “increase acetyl-tubulin without modifying the acetylation status of Histone 3”.
For `CCCCN(Cc1ccc(C(=O)NO)cc1)C(=O)Nc1ccc2cn[nH]c2c1` [JB7-19, 4-((1-butyl-3-(1H-indazol-6-yl)ureido)methyl)-N-hydroxybenzamide], the “cell proliferation / viability” value (murine melanoma B16) was “decrease cell proliferation”, the “cell proliferation / viability” value [6] was “decrease cell proliferation” and the IL-10 production [7] was “inhibit IL-10 production”. For the same compound, the “cell proliferation / viability” value [8] was “decrease cell proliferation”, the “cell proliferation / viability” value (murine melanoma SM1) was “decrease cell proliferation” and the IL-10 production [9] was “inhibit IL-10 production”. The “acetylation of α-tubulin and histone” value [5] was “increase acetyl-tubulin without modifying the acetylation status of Histone 3”.
`Cc1[nH]c2ccccc2c1CCNCc1ccc(/C=C/C(=O)NO)cc1` [LBH589, reference compound] showed a GI50 [2] of 0.15 µM and an IC50 ([10]; read-out: IC50 range, inhibition of proliferation) of 0.01 to 0.05 µM.
With `CN1CCc2c(c3ccccc3n2Cc2ccc(C(=O)NO)cc2)C1` [Tubastatin A, reference compound] the “melanoma antigen expression at the mRNA level” value [3] was “upregulation of melanoma antigens gp100, MART1, TYRP1 and TYRP2”, the tumor growth (B16 melanoma) was “delayed tumor growth” and the “antigen-specific T-cell responses to vaccination” value [11] was “enhances antigen-specific T-cell responses to vaccination”. For the same compound, the GI50 [2] was 40.5 ± 1.21 µM, the “concentration range inhibiting proliferation (in words)” value [10] was “low micromolar range” and the “STAT3 phosphorylation and recruitment to the IL-10 gene promotor” value (STAT3 in APCs) was “decreased STAT3 phosphorylation and recruitment to the IL-10 gene promotor”. The “acetylation of α-tubulin and histone” value [5] was “increase acetyl-tubulin without modifying the acetylation status of Histone 3”.
Trichostatin A [TSA] was tested, and the “concentration range inhibiting proliferation (in words)” value [10] was “low 100 nM range”.
